Results reported in patent US11685761B2, “Cyclic di-nucleotide compounds as sting agonists” (Merck Sharp & Dohme Corp., priority 2017, dated 2023).
Read-outs that look alike come from different tables or passages of the source.

How the values were obtained:
full-length HAQ STING = target: T1, full-length HAQ STING (Homo sapiens, UniProt Q86WV6, G230A/H232R/R293Q/R71H); assay: 3H-cGAMP filtration binding assay (HAQ STING); details: competition with tritiated cGAMP ligand; T. ni cell membranes overexpressing full-length HAQ STING
T1 construct: made in house; host or cells: Trichoplusia ni (Hi-Five) insect cells, baculovirus generated in Sf21; crude membranes
T1 sequence (Q86WV6 with tags, fused parts or gaps R71H/G230A/H232R/R293Q): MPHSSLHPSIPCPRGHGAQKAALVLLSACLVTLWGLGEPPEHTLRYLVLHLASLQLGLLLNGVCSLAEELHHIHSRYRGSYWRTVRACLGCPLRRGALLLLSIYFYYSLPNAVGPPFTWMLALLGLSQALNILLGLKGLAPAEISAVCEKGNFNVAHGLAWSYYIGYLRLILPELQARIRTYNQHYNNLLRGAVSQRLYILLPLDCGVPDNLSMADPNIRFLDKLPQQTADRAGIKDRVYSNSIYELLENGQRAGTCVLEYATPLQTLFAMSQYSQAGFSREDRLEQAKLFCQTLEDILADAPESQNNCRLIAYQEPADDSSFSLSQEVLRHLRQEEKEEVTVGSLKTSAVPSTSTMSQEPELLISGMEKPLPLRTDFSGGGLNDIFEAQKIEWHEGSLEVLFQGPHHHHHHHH
Source text: The ability of compounds to bind STING is quantified by the ability to compete with tritiated cGAMP ligand for human STING receptor membrane using a radioactive filter-binding assay. The binding assay employs STING receptor obtained from Hi-Five cell membranes overexpressing full-length HAQ STING prepared in-house and tritiated cGAMP ligand also purified in-house.
The ability of compounds to bind STING is quantified by their ability to compete with tritiated cGAMP ligand for human STING receptor membrane using a radioactive filter-binding assay. The binding assay employs STING receptor obtained from Trichoplusia ni cell membranes (T. ni; Expression Systems, cat #94-002F, www.expressionsystems.com) overexpressing full-length HAQ STING and tritiated cGAMP ligand.
The basic HAQ STING filtration assay protocol is as follows:
The compounds were serially titrated by the Hamilton STARPlus CORE in a 96-well plate (Greiner, #651201) using a 1:3 ten-point dose response format. […] 148 uL of prepared membrane was then manually added to each well of a 96-well deep-well polypropylene plate (Fisher Scientific, #12-566-121). Following membrane addition, 2 uL of either titrated test compound, DMSO control (Sigma #276855), or cold cGAMP control was added to the appropriate wells using a BIOMEK FX. Compound and membrane then preincubated for 60 min at RT to allow compound binding to equilibrate. Following equilibration, 8 nM of [^3H] c-GAMP ligand was prepared by diluting into assay buffer, and 50 uL of this working stock was then manually added to each well of the assay plate. Plates were then incubated at RT for 60 min, and the contents of each assay plate were then filtered through a 96-well GF/B filter plate (PerkinElmer, #6005250) using a TOMTEC MACH III Cell Harvester equipped with 20 mM HEPES buffer (Fisher Scientific, #BP299500). The filter plates were then dried at 55° C. for 30 min using a pressurized oven before 30 uL of ULTIMA GOLD F scintillate was added to each well. Tritium levels for each reaction well were then measured using a PerkinElmer TopCount plate reader.
After normalization to controls, the percent activity for each compound concentration was calculated by measuring the amount of remaining radioactivity. The plot of percent activity versus the log of compound concentration was fit with a 4-parameter dose response equation to calculate EC50 values.

[1] = system: IFN-β secretion from THP1 cells; assay: IFN-β secretion in THP1 cell culture (5 h); type: cell-based, human; details: for activation at 30 µM: Homo sapiens, read-out: % Effect at 30 μM relative to 2′3′-cGAMP
Protocol: The ability of compounds to stimulate the secretion of interferon-beta from THP1 cells was measured using a human IFN-β AlphaLISA kit (Perkin Elmer, Cat. No. AL265F). The basic protocol is as follows:
The cell viability and count was ascertained using a Beckman Coulter V-Cell XR cell counter. The cell suspension was centrifuged at 200×g for 5 min at RT. Cells were resuspended to a density of 0.8×10^6/mL in 37° C. assay medium. Subsequent liquid transfers were performed using either a Matrix electronic multichannel pipette or an Agilent Bravo Automated Liquid Handling Platform.
The assay was started by dispensing 40 μL of the previously prepared cell suspension into the wells of the plate containing compounds. After 5 h incubation at 37° C., 5% CO2 in a humidified atmosphere, the plate of cells and compounds was centrifuged at 200×g for 5 min at RT. […] To these supernatant-containing wells was added 10 μL of 5× Anti-Analyte Acceptor beads (50 μg/mL of AlphaLISA HiBlock Buffer) and incubated for 30 min at RT while shaking on an orbital plate shaker. To each well was added 10 μL of 5× Biotinylated Antibody Anti-analyte (5 nM in AlphaLISA HiBlock Buffer) and incubated on an orbital plate shaker for 60 min at RT or overnight at 4° C. To each well was added 25 μL of 2× SA-Donor beads (80 μg/mL in AlphaLISA HiBlock Buffer) and incubated for 30-45 min at RT in the dark while shaking on an orbital plate shaker. The plate was then read on a Perkin Elmer Envision (λex680 nm, λem=570 nm). The percent effect of the AlphaLISA signal at each compound concentration was calculated based on 30 uM cGAMP positive controls and 0.3% DMSO negative controls. The plot of percent effect versus the log of compound concentration was fit with a 4-parameter concentration response equation to calculate EC50 values.
Compounds of the disclosure were evaluated for IFN-β secretion in THP1 cell culture as described above.

[2] = THP-1, 5 h, THP1 cells, 5 h incubation, compound at 30 μM, 30 uM cGAMP = 100%
[3] = THP1 cells, 5 h incubation, compound at 30 μM, 30 uM cGAMP = 100%

Row | SMILES | EC50 (full-length HAQ STING) | activation at 30 µM [1, 2] | % Effect at 30 μM relative to 2′3′-cGAMP [1, 3] | % Effect at 30 μM relative to 2′3′-cGAMP [1] | activation at 30 µM ([1]; THP-1, THP1 cells, 5 h incubation, compound at 30 μM, 30 uM cGAMP = 100%)
1 | Nc1ncnn2c([C@H]3C[C@@H]4O[P@](=O)(S)OC[C@H]5O[C@@H](n6ccc(=O)n7ccnc67)[C@H](O[P@](=O)(S)OC[C@H]4O3)[C@@H]5O)cnc12 (single isomer, unassigned) [Example 8] | 23 nM | 128% | – | – | –
2 | Nc1ncnn2c([C@H]3C[C@@H]4O[P@](=O)(S)OC[C@H]5O[C@@H](n6ccc(=O)n7ccnc67)[C@H](O[P@@](=O)(S)OC[C@H]4O3)[C@@H]5O)cnc12 (single isomer, unassigned) [Example 9] | 23 nM | 80% | – | – | –
3 | Nc1ncnc2c1ncn2[C@@H]1S[C@@H]2CO[P@@](=O)(S)O[C@@H]3[C@H](O)[C@@H](CO[P@@](=O)(S)O[C@H]2[C@H]1O)O[C@H]3n1ccc(=O)n2ccnc12 (single isomer, unassigned) [Example 10] | 3 nM | 183% | – | – | –
4 | Nc1ncnc2c1ncn2[C@@H]1S[C@@H]2CO[P@](=O)(S)O[C@@H]3[C@H](O)[C@@H](CO[P@@](=O)(S)O[C@H]2[C@H]1O)O[C@H]3n1ccc(=O)n2ccnc12 (single isomer, unassigned) [Example 11] | 1740 nM | 5% | – | – | –
5 | Nc1ncnc2c1ncn2[C@@H]1S[C@@H]2CO[P@@](=O)(S)O[C@@H]3[C@H](O)[C@@H](CO[P@](=O)(S)O[C@H]2[C@H]1O)O[C@H]3n1ccc(=O)n2ccnc12 (single isomer, unassigned) [Example 12] | 156 nM | 123% | – | – | –
6 | Nc1ncnc2c1nnn2[C@@H]1O[C@@H]2COP(=O)(S)O[C@@H]3[C@H](F)[C@@H](COP(=O)(S)O[C@H]2[C@@H]1F)O[C@H]3n1cnc2c(=O)n3cc[nH]c3nc21 (single isomer, unassigned) [Example 23] | 28 nM | – | – | – | –
7 | Nc1ncnc2c1nnn2[C@@H]1O[C@@H]2COP(=O)(S)O[C@@H]3[C@H](F)[C@@H](COP(=O)(S)O[C@H]2[C@@H]1F)O[C@H]3n1cnc2c(=O)n3cc[nH]c3nc21 (single isomer, unassigned) [Example 24] | 411 nM | – | – | – | –
8 | Nc1ncnc2c1ncn2[C@@H]1O[C@@]23CO[C@@H]1[C@@H]2OP(=O)(S)OC[C@H]1O[C@@H](n2cnc4c(=O)n5cc[nH]c5nc42)[C@H](OP(=O)(S)OC3)[C@@H]1F (single isomer, unassigned) [Example 25] | 1 nM | – | 131% | – | –
9 | Nc1ncnc2c1ncn2[C@@H]1O[C@@]23CO[C@@H]1[C@@H]2OP(=O)(S)OC[C@H]1O[C@@H](n2cnc4c(=O)n5cc[nH]c5nc42)[C@H](OP(=O)(S)OC3)[C@@H]1F (single isomer, unassigned) [Example 26] | 19 nM | – | 153% | – | –
10 | Nc1ncnc2c1ncn2[C@@H]1O[C@@]23CO[C@@H]1[C@@H]2OP(=O)(S)OC[C@H]1O[C@@H](n2cnc4c(=O)n5cc[nH]c5nc42)[C@H](OP(=O)(S)OC3)[C@@H]1F (single isomer, unassigned) [Example 27] | 61 nM | – | 143% | – | –
11 | Nc1nc2c(ncn2[C@@H]2O[C@@H]3COP(=O)(S)O[C@H]4[C@@H](O)[C@H](n5cnc6c(=O)[nH]c7nccn7c65)O[C@@H]4COP(=O)(S)O[C@@H]2[C@@H]3F)c(=O)[nH]1 (single isomer, unassigned) [Example 32] | 14 nM | – | 141% | – | –
12 | Nc1nc2c(ncn2[C@@H]2O[C@@H]3COP(=O)(S)O[C@H]4[C@@H](O)[C@H](n5cnc6c(=O)[nH]c7nccn7c65)O[C@@H]4COP(=O)(S)O[C@@H]2[C@@H]3F)c(=O)[nH]1 (single isomer, unassigned) [Example 33] | 90 nM | – | 83% | – | –
13 | Nc1nc2c(ncn2[C@@H]2O[C@@H]3COP(=O)(S)O[C@H]4C[C@H](n5ccc6c(=O)[nH]cnc65)O[C@@H]4COP(=O)(S)O[C@@H]2[C@@H]3F)c(=O)[nH]1 (single isomer, unassigned) [Example 35] | 11 nM | – | – | 98% | –
14 | Nc1nc2c(ncn2[C@@H]2O[C@@H]3COP(=O)(S)O[C@H]4C[C@H](n5ccc6c(=O)[nH]cnc65)O[C@@H]4COP(=O)(S)O[C@@H]2[C@@H]3F)c(=O)[nH]1 (single isomer, unassigned) [Example 36] | 2 nM | 94% | – | – | –
15 | Nc1nc2c(ncn2[C@@H]2O[C@@H]3COP(=O)(S)O[C@H]4C[C@H](n5ccc6c(=O)[nH]cnc65)O[C@@H]4COP(=O)(S)O[C@@H]2C3)c(=O)[nH]1 (single isomer, unassigned) [Example 37] | 49 nM | 102% | – | – | –
16 | Nc1nc2c(ncn2[C@@H]2O[C@@H]3COP(=O)(S)O[C@H]4[C@H](F)[C@H](n5ccc6c(=O)[nH]cnc65)O[C@@H]4COP(=O)(S)O[C@@H]2[C@@H]3F)c(=O)[nH]1 (single isomer, unassigned) [Example 39] | 1 nM | 166% | – | – | –
17 | Nc1ncnc2c1ncn2[C@@H]1O[C@@H]2COP(=O)(S)O[C@H]3[C@H](F)[C@H](n4ccc5c(=O)[nH]cnc54)O[C@@H]3COP(=O)(S)O[C@@H]1C2 (single isomer, unassigned) [Example 47] | 460 nM | – | 13% | – | –
18 | Nc1ncnc2c1ncn2[C@@H]1O[C@@H]2COP(=O)(S)O[C@@H]3[C@@H](F)[C@@H](COP(=O)(S)O[C@H]2[C@@H]1F)O[C@H]3n1cnc2c(=O)[nH]ccc21 (stereo partly drawn) [Example 21, 1-[(5R,7R,8S,12aR,14R,15S,15aR,16S)-14-(6-amino-9H-purin-9-yl)-15,16-difluoro-2,10-dioxido-2,10-disulfanyloctahydro-12H-5,8-methanofuro[3,2-1][1,3,6,9,11,2,10]pentaoxadiphosphacyclotetradecin-7-yl]-1,5-dihydro-4H-imidazo[4,5-c]pyridin-4-one] | – | – | – | – | 143%
19 | Nc1ncnc2c1ccn2[C@@H]1O[C@@H]2COP(=O)(S)O[C@@H]3C[C@@H](COP(=O)(S)O[C@H]2[C@@H]1F)O[C@H]3n1cnc2c(=O)[nH]ccc21 (stereo partly drawn) [Example 22, 1-[(5S,7R,8R,12aR,14R,15S,15aR)-14-(4-amino-7H-pyrrolo[2,3-d]pyrimidin-7-yl)-15-fluoro-2,10-dioxido-2,10-disulfanyloctahydro-12H-5,8-methanofuro[3,2-l][1,3,6,9,11,2,10]pentaoxadiphosphacyclotetradecin-7-yl]-1,5-dihydro-4H-imidazo[4,5-c]pyridin-4-one] | – | 100% | – | – | –
